Reference: US20260002931A1, “CULTURED CELL SHEET AND METHOD FOR PRODUCING SAME; METHOD FOR EVALUATING COMPOUND OR DRUG; AND METHOD FOR EVALUATING QUALITY OF CULTURED CELL SHEET” (OJI HOLDINGS CORPORATION, priority 2022, published 2026)

How the values were obtained:
[1] = tested on: iCell cardiomyocyte CM2 (human iPS cell-derived cardiomyocytes); assay: Drug safety test-1: arrhythmia measurement by Ca-imaging (CQ1); assay type: cell-based; details: for duration (20% waveform width of Ca transient) / interval between peaks of Ca transient: cumulative dose1-dose3 of Table 2
Experimental: (§1) The drug was dissolved in DMSO and cumulatively administered. First, the measurement as dose0 was performed without adding drugs. […] Subsequently, immediately after the measurement, the drug was added to the same well, respectively so that the concentration was dose2, and the measurement was performed after 15 minutes. The same was done for dose3.
(§2) For the cell responsiveness after the drug administration, an arrhythmia measurement method by Ca-imaging using a confocal imaging device (CQ1, manufactured by Yokogawa Electric Corporation) and a motion test method using a live cell imaging device (SI8000, manufactured by Sony Corporation) were performed to investigate the effect on the beating rate and the line width of the beating peak.
To CM2 on day 6 of maintenance culture, a fluorescent Ca indicator (EarlyTox carditotoxicity kit, manufactured by Molecular Devices, LLC.) was added, and living cells were stained. First, the change in Ca fluorescence intensity associated with the contraction of cardiomyocytes was measured as Dose0 in CQ1 without adding drugs. Immediately after the measurement, each drug at the concentration of Dose1 was added to the same well plate, and the change in Ca fluorescence intensity was measured after 15 minutes. For Dose2 and Dose3, the drug was cumulatively administered in the same manner, and the change in Ca fluorescence intensity was measured. The addition test of each drug was performed at n=6.
The significant difference test was performed between the subject group in which DMSO was added and the drug addition group in CM2 cultured in the planar plate and CM2 cultured the aligned plate.
For the side effects seen from the waveform changes of Ca transient, early after depolarization (EAD) and delayed after depolarization (DAD), small regular waveforms (VT-like), and reaction (waveform) disappearance were recorded. The“−” in the table indicates the state in which no arrhythmia or the like has occurred. The degree of arrhythmia is mild for EAD, moderate for DAD, and severe for vt-like.

[2] = tested on: iCell cardiomyocyte CM2 (human iPS cell-derived cardiomyocytes); assay: Drug safety test-3 (anti-cancer drug): motion test method using live cell imaging device, CM2 cultured for 15 days; details: 3 μM; for beating rate (BR), change rate vs pre-measurement: day 15, after 24 and 48 hours
Experimental: iCell cardiomyocytes (iCell Cardiomyocyte v2.0, manufactured by FUJIFILM Cellular Dynamics, Inc.) were used as human iPS cell-derived cardiomyocytes (hereinafter referred to as CM2). The culture was performed by the following procedure.
In the same procedure as in the above (10), CM2 was seeded at a concentration of 6×10^4 cells/well in the aligned plate (96 well plate, ND Cell Aligner) and the planar plate (96 well plate). A maintenance culture was performed in a 37° C. CO2 incubator, and the drug was administered on day 15 with setting the day of seeding as day 0.
The drug was dissolved in DMSO and administered. First, as a pre-measurement, a measurement was performed without adding the drug. Immediately after the measurement, the drug dissolved in DMSO was added to each well so that the concentration was 3 PM, and the measurement was performed after 24 hours and 48 hours. The measurement was performed in the same manner as the (10-1) measurement by motion test method using live cell imaging device described above.
For the measurement data, the measurement value at the concentration of 3 μM was corrected with the average value of the pre-measurement without adding the drug (measurement value at 3 μM/measurement value of pre-measurement), and the change rate with setting the measurement value of the pre-measurement as 1 was determined.
In addition, a T test was performed between the planar plate and the aligned plate in the drug addition group. For the comparison group with a P value of 0.01 or less, the graph was marked.
DMSO used as the solvent was added so that the final concentration was 0.01%. The effect of DMSO was confirmed by measuring 0.01% DMSO addition group after 24 hours and 48 hours. The measurement data were processed in the same manner as the drug addition group.

[3] = tested on: iCell cardiomyocyte CM2 (human iPS cell-derived cardiomyocytes); assay: Drug safety test-1: motion test method using live cell imaging device (SI8000); assay type: cell-based; details: for CRD (corrected with the beating rate): Dose2 0.3 μM and Dose3 1 μM, vs DMSO group; for beating rate (BR) / relaxation velocity (RV): day 5, cumulative dose1-dose3 of Table 2; for CRD (corrected with beating rate): Dose1 1 μM, Dose2 3 μM, Dose3 10 μM
Experimental: as §1, §2
CM2 on day 5 of maintenance culture was used, and video data was first obtained as Dose0 using SI8000 (manufactured by Sony Corporation) without adding drugs. Immediately after the measurement, each drug at the concentration of dose1 was added to the same well plate, and video data was obtained after 15 minutes. For Dose2 and Dose3, the drug was cumulatively administered in the same manner, and video data was obtained. The addition test of each drug was performed at n=6.
The beating rate (BR), the contractile velocity (CV), the relaxation velocity (RV), and the contraction-relaxation duration (CRD) were analyzed from the video data of S18000, and the effects of the drugs on the motion of the cells were compared. The contraction-relaxation duration (CRD) was corrected by the following equation with reference to the equation of Frederica to correct variation due to the beating rate (BR).
For the side effects seen from the change in the parameters of SI8000, early after depolarization (EAD) and delayed after depolarization (DAD), small regular waveforms (VT-like), and reaction (waveform) disappearance were recorded. Changes in waveforms not classified into EAD or DAD were described as arrhythmia. The “-” in the table indicates the state in which no arrhythmia or the like has occurred.
The degree of arrhythmia is mild for EAD, moderate for DAD, and severe for vt-like.

[4] = tested on: CM2 (human iPS cell-derived cardiomyocytes); assay: Measurement of oxygen consumption rate with β-oxidation inhibitor; assay type: cell-based; details: day 27, 50 μM; for OCR with addition of Etomoxir: 10 to 70 minutes
Experimental: The measurement was performed using an oxygen consumption rate plate assay kit (manufactured by DOJINDO LABORATORIES, E297).
To the well plate in which CM2 was cultured, an oxygen probe diluted with medium was added and allowed to stand for 30 minutes in a plate reader incubated at 37° C. in advance. Next, a sample solution containing a β-oxidation inhibitor Etomoxir that inhibits a fatty acid metabolism enzyme at the final concentration 50 μM was added, and mineral oil was immediately added dropwise to block the supply of oxygen.
After allowing the well plate to stand for 5 minutes in a plate reader incubated at 37° C., the fluorescence intensity was measured over time. The fluorescent plate reader was measured under conditions of an excitation wavelength of 495 nm/fluorescence wavelength of 650 nm, and the data acquisition was performed for at least 168 minutes every 10 minutes.
The measurement was performed with 6 wells without addition of Etomoxir as control and 3 wells with addition of 50 μM Etomoxir.
The oxygen concentration (pmol) was calculated with the calculation sheet attached to the oxygen consumption rate plate assay kit, and the oxygen consumption rate (pmol/min) was calculated from the oxygen concentration reduction amount for 60 minutes of 10 to 70 minutes after the start of the measurement.

[5] = tested on: iCell cardiomyocytes CM2 (human iPS cell-derived cardiomyocytes); assay: Drug safety test-2: motion test method using live cell imaging device, CM2 cultured for 15 days; assay type: cell-based; details: for beating rate (BR), relative to dose0 / contractile velocity (CV), relative to dose0 / relaxation velocity (RV), relative to dose0: day 15, doses of Table 7, 120 min isoproterenol, 15 min milrinone
Experimental: The drug used was isoproterenol and milrinone. […] First, the measurement as dose0 was performed without adding drugs.
For the cell responsiveness after drug administration, a motion test method using a live cell imaging device (SI8000, manufactured by Sony Corporation) was performed to investigate the effect on the beating rate, the contractile velocity, and the relaxation velocity.
CM2 on day 15 of maintenance culture was used, and video data was first obtained as dose0 using SI8000 (manufactured by Sony Corporation) without adding drugs. Immediately after the measurement, each drug at the concentration of each dose was added to the same well plate, and video data was obtained after 120 minutes for isoproterenol and after 15 minutes for milrinone. The addition test of each drug was performed at n=5.
The beating rate (BR), the contractile velocity (CV), and the relaxation velocity (RV) were analyzed from the video data of SI8000, and the effects of the drugs on the motion of the cells were compared.
The measurement data was corrected with the average value of dose0 of no adding drugs (each measurement value/measurement value of dose0), and the relative value with setting the measurement value of dose0 as 1 was determined.

[6] = aligned and planar plates, day 6

## COc1cc(N)c(Cl)cc1C(=O)NC1CCN(CCCOc2ccc(F)cc2)CC1OC (stereo not drawn) [Cisapride]
[1]; [6]
  duration (20% waveform width of Ca transient): extended in a dose-dependent manner
  interval between peaks of Ca transient: extended in a dose-dependent manner
[1]; aligned plate, cisapride Dose1 0.01 μM to Dose3 0.1 μM, wells of 6
  incidence of arrhythmia: 1/6
[1]; cisapride, Dose3 0.1 μM
  difference between the value at Dose0 and at Dose3 (duration, interval), aligned plate versus planar plate: smaller
[1]; planar plate, cisapride 0.01-0.1 μM
  incidence of arrhythmia: No arrhythmia occurred

## COc1cccc2c1C(=O)c1c(O)c3c(c(O)c1C2=O)C[C@@](O)(C(=O)CO)C[C@@H]3O[C@H]1C[C@H](N)[C@H](O)[C@H](C)O1 [Doxorubicin, doxorubicin]
[2]
  beating rate, aligned plate compared to planar plate: significantly increased
  beating rate, result after 48 hours compared with after 24 hours: more increased
[2]; after 48 hours
  RV, aligned plate compared to planar plate: significantly increased
[2]; aligned plate
  relaxation velocity (RV), change rate vs pre-measurement: increased
  beating rate (BR), change rate vs pre-measurement: increased
[2]; planar plate
  relaxation velocity (RV), change rate vs pre-measurement: increased
  beating rate (BR), change rate vs pre-measurement: increased

## Cc1cccc(CCN2CCC(C(=O)c3ccc(NS(C)(=O)=O)cc3)CC2)n1 [E-4031]
[3]; aligned plate
  CRD (corrected with the beating rate): significantly reduced
  beating rate (BR): reduced
  relaxation velocity (RV): reduced
[3]; planar plate
  CRD (corrected with the beating rate): significantly reduced
  beating rate (BR): reduced
  relaxation velocity (RV): reduced
[3]; planar plate, E-4031
  CRD (corrected with the beating rate), planar plate compared with aligned plate: reduced more remarkably
[1]; E-4031 0.1 μM, day 6
  Duration of Ca transient, planar plate compared with aligned plate: slightly longer
[1]; E-4031 0.3 μM, day 6
  Duration of Ca transient, planar plate compared with aligned plate: significantly longer
[1]; E-4031 1 μM, day 6
  Duration of Ca transient, planar plate: not significantly but remarkably extended

## CCOC(=O)[C@@]1(CCCCCCOc2ccc(Cl)cc2)CO1 [Etomoxir]
[4]; aligned plate
  OCR compared to OCR before addition: 11.0%
  OCR with addition of Etomoxir: 7.0 pmol/min
[4]; planar plate
  OCR compared to OCR before addition: 98.3%
  OCR with addition of Etomoxir: 77.8 pmol/min

## CC(C)NCC(O)c1ccc(O)c(O)c1 (stereo not drawn) [Isoproterenol]
[3]; aligned and planar plate, any concentration (1, 3, 10 μM)
  arrhythmia or the like: No arrhythmia or the like was observed
[3]; aligned plate
  CRD (corrected with beating rate): extended
  beating rate (BR): tended to increase
  relaxation velocity (RV): tended to increase
[3]; planar plate, 1, 3, 10 μM
  change of CRD compared with the solvent (DMSO): largely different from that of the solvent (DMSO)
[3]; planar plate
  CRD (corrected with beating rate): extended
  beating rate (BR): tended to increase
  relaxation velocity (RV): tended to increase
[1]; [6]
  duration (20% waveform width of Ca transient): Reduction was observed
  interval between peaks of Ca transient: Reduction was observed
[1]; aligned and planar plates, up to high concentration (Dose3, 10 μM)
  arrhythmia: arrhythmia did not occur
[1]; planar plate, isoproterenol 1, 3, 10 μM
  reduction in duration: small
[5]; aligned plate
  beating rate (BR), relative to dose0: increased
  contractile velocity (CV), relative to dose0: increased
  relaxation velocity (RV), relative to dose0: increased
[5]; isoproterenol dose2 (0.3 μM) and dose3 (3 μM)
  relaxation velocity, aligned plate compared to planar plate: increased
[5]; planar plate
  beating rate (BR), relative to dose0: increased
  contractile velocity (CV), relative to dose0: tended to reduce
  relaxation velocity (RV), relative to dose0: increased

## Cc1[nH]c(=O)c(C#N)cc1-c1ccncc1 [Milrinone]
[5]; aligned plate
  beating rate (BR), relative to dose0: increased
  contractile velocity (CV), relative to dose0: increased
  relaxation velocity (RV), relative to dose0: increased
[5]; milrinone
  RV, aligned plate compared to planar plate: significantly increased
[5]; milrinone dose3 (300 μM)
  contractile velocity (CV), aligned plate compared to planar plate: significantly increased
  relaxation velocity (RV), aligned plate compared to before the drug addition: predominantly increased
[5]; milrinone, all doses (30, 100, 300 μM)
  beating rate (BR), aligned plate compared to before the drug addition: predominantly increased
[5]; planar plate
  beating rate (BR), relative to dose0: did not change
  contractile velocity (CV), relative to dose0: tended to reduce
  relaxation velocity (RV), relative to dose0: tended to reduce

## C=C[C@H]1C[N@@]2CC[C@H]1C[C@@H]2[C@@H](O)c1ccnc2ccc(OC)cc12 [Quinidine]
[1]; aligned plate, quinidine Dose1, 3 μM, wells of 6
  incidence of moderate to severe arrhythmia (DAD, VT-like): 0/6
[1]; aligned plate, quinidine Dose2, 10 μM, wells of 6
  incidence of moderate to severe arrhythmia (DAD, VT-like): 0/6
[1]; aligned plate, quinidine Dose3, 30 μM, wells of 6
  incidence of moderate to severe arrhythmia (DAD, VT-like): 6/6
[1]; planar plate, quinidine Dose1, 3 μM, wells of 6
  incidence of moderate to severe arrhythmia: 0/6
[1]; planar plate, quinidine Dose2, 10 μM, wells of 6
  incidence of moderate to severe arrhythmia: 0/6
[1]; planar plate, quinidine Dose3, 30 μM, wells of 6
  incidence of moderate to severe arrhythmia: 4/6
[1]; quinidine Dose2, 10 μM
  duration of Ca transient, planar plate compared to aligned plate: longer extension
  interval of Ca transient, planar plate compared to aligned plate: longer extension
  peak height of Ca transient, planar plate compared to aligned plate: significantly weaker decrease
[1]; quinidine Dose3, 30 μM
  contraction force: greatly reduced
  waveform of Ca transient: changed to a higher frequency waveform
